Test results from the supplement of paper PMC10307832.

What was measured:
Assay in all cases: relative viability (nuclei count vs DMSO), 5 days (fraction); higher = more cells survive
[1] = compound: CC(C)C[C@@H](C(=O)N[C@H](C(=O)OC1CCCC1)c1ccccc1)[C@H](O)C(=O)NO [Tosedostat] + COc1cccc2cc(-c3nc([C@H]4CC[C@H](C(=O)O)CC4)n4ncnc(N)c34)[nH]c12 [OSI-027] (partner 0.5 µM)
Summary of the method: (§1)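 Medians of duplicate plates are given as relative viability. That measure is the nuclei count in treated wells divided by the count in vehicle wells. Counts were taken on 4× images of lung cancer cell lines in 1536-well plates, 5 days after pin-tool dosing the day after seeding with one drug alone or a fixed anchor-drug dose plus five library-drug doses (not always all listed) in √10 steps.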

[2] = compound: CC(C)C[C@@H](C(=O)N[C@H](C(=O)OC1CCCC1)c1ccccc1)[C@H](O)C(=O)NO [Tosedostat] + C[C@@H](Oc1cc(-c2cnn(C3CCNCC3)c2)cnc1N)c1c(Cl)ccc(F)c1Cl [Crizotinib] (partner 1 µM)
Summary of the method: as §1

[3] = compound: CC(C)C[C@@H](C(=O)N[C@H](C(=O)OC1CCCC1)c1ccccc1)[C@H](O)C(=O)NO [Tosedostat] + Nc1ncn([C@H]2C[C@H](O)[C@@H](CO)O2)c(=O)n1 [Decitabine] (partner 2 µM)
Summary of the method: as §1

[4] = compound: CC1=NN=C(O1)C2=NN=C(C=C2)N3CCC(CC3)OC4=C(C=CC(=C4)F)Cl + COc1cccc2cc(-c3nc([C@H]4CC[C@H](C(=O)O)CC4)n4ncnc(N)c34)[nH]c12 [OSI-027] (partner 0.5 µM)
Summary of the method: as §1

| Cell Line | relative viability ([1]; first compound 0.02 µM) | relative viability ([1]; first compound 0.06325 µM) | relative viability ([1]; first compound 0.2 µM) | relative viability ([1]; first compound 0.6325 µM) | relative viability ([1]; first compound 2 µM) | relative viability ([2]; first compound 0.02 µM) | relative viability ([2]; first compound 0.06325 µM) | relative viability ([2]; first compound 0.2 µM) | relative viability ([2]; first compound 0.6325 µM) | relative viability ([2]; first compound 2 µM) | relative viability ([3]; first compound 0.02 µM) | relative viability ([3]; first compound 0.06325 µM) | relative viability ([3]; first compound 0.2 µM) | relative viability ([3]; first compound 0.6325 µM) | relative viability ([3]; first compound 2 µM) | relative viability ([4]; first compound 0.253 µM) | relative viability ([4]; first compound 0.8 µM) | relative viability ([4]; first compound 2.53 µM) | relative viability ([4]; first compound 8 µM) |
| --- | --- | --- | --- | --- | --- | --- | --- | --- | --- | --- | --- | --- | --- | --- | --- | --- | --- | --- | --- |
| SW 1573 | 0.653 | 0.517 | 0.558 | 0.479 | 0.482 | 0.711 | 0.868 | 0.637 | 0.648 | 0.713 | 0.675 | 0.504 | 0.482 | 0.451 | 0.415 | 0.643 | 0.52 | 0.562 | 0.4 |
| NCI-H1993 | 0.555 | 0.476 | 0.564 | 0.548 | 0.442 | 0.994 | 0.761 | 0.779 | 0.688 | 0.685 | 0.487 | 0.673 | 0.576 | 0.511 | 0.525 | 0.457 | 0.552 | 0.523 | 0.581 |
| HCC-78 | 0.33 | 0.377 | 0.406 | 0.364 | 0.376 | 0.298 | 0.337 | 0.324 | 0.371 | 0.391 | 0.634 | 0.706 | 0.732 | 0.75 | 0.658 | 0.414 | 0.369 | 0.348 | 0.335 |
| IA-LM | – | – | – | – | – | 0.937 | 0.879 | 0.776 | 0.692 | 0.602 | – | – | – | – | – | – | – | – | – |
| NCI-H647 | 0.541 | 0.667 | 0.515 | 0.4 | 0.585 | 1.25 | 1.04 | 0.831 | 0.957 | 0.869 | 0.332 | 0.367 | 0.286 | 0.404 | 0.313 | 0.516 | 0.423 | 0.453 | 0.207 |
| NCI-H520 | 0.215 | 0.285 | – | 0.335 | 0.22 | 0.692 | 0.754 | 0.787 | 0.833 | 0.846 | 0.524 | 0.439 | 0.414 | 0.459 | 0.495 | 0.336 | – | 0.337 | 0.244 |
| NCI-H1355 | 0.377 | 0.399 | 0.442 | 0.413 | 0.351 | 0.997 | 1.09 | 1.06 | 0.976 | 0.813 | 0.347 | 0.357 | 0.315 | 0.332 | 0.305 | 0.343 | 0.38 | 0.386 | 0.331 |
| COR-L23 | 0.965 | 0.746 | 0.69 | 0.65 | 0.64 | 0.86 | 0.554 | 0.642 | 0.604 | 0.524 | 0.465 | 0.411 | 0.393 | 0.405 | 0.37 | 0.654 | 0.558 | 0.586 | 0.389 |
| NCI-H2347 | 0.364 | 0.203 | 0.459 | 0.353 | 0.427 | 0.818 | 0.666 | 0.676 | 0.747 | 0.771 | 0.64 | 0.609 | 0.667 | 0.444 | 0.542 | – | 0.366 | 0.463 | 0.354 |
